The record followed here is ChEMBL document CHEMBL2046323, “Synthesis, structure-activity relationship studies, and X-ray crystallographic analysis of arylsulfonamides as potent carbonic anhydrase inhibitors” (J Med Chem, 2012).

Some targets named below: Carbonic anhydrase 9 (Homo sapiens, UniProt Q16790); Carbonic anhydrase 14 (Homo sapiens, UniProt Q9ULX7); Carbonic anhydrase 2 (Homo sapiens, UniProt P00918); Carbonic anhydrase 1 (Homo sapiens, UniProt P00915); Carbonic anhydrase 7 (Homo sapiens, UniProt P43166).

Chain of Carbonic anhydrase 1 (P00915 whole entry): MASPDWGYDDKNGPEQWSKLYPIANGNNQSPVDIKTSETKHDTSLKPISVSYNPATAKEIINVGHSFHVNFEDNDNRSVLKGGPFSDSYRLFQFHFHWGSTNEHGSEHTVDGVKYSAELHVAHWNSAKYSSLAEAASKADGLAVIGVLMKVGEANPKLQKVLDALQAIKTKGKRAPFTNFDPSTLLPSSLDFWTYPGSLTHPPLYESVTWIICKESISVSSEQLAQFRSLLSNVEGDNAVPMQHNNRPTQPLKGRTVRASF
Chain of Carbonic anhydrase 14 (Q9ULX7 whole entry): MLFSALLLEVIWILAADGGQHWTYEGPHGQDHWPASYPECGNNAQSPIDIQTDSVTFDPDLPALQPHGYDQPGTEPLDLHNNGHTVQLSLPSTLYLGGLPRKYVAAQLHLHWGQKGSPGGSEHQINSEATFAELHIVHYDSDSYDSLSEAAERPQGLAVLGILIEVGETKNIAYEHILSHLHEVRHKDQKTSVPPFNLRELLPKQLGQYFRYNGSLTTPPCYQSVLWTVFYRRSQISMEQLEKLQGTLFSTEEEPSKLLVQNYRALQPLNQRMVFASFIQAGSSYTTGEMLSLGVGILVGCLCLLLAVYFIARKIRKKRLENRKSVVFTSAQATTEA
Chain of Carbonic anhydrase 7 (P43166 whole entry): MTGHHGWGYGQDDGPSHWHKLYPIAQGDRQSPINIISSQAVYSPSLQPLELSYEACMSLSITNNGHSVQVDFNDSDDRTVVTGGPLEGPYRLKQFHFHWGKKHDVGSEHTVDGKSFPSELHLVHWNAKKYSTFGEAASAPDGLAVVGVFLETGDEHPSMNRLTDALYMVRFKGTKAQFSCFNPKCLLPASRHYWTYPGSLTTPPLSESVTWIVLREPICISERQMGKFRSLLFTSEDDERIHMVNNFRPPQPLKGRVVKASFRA

One may read the Ki as a dissociation constant, usually derived from enzyme kinetics or from competition with a known ligand. A higher Ki goes with weaker binding. Consider `NS(=O)(=O)c1ccc(C2NCCc3cc(O)ccc32)cc1` (configuration not stated), for which, on Carbonic anhydrase 9, the affinity corresponds to a Ki of 0.0683 µM.
Take `COc1ccc2c(c1)CCNC2c1ccc(S(N)(=O)=O)cc1` (racemic): the inhibition constant Ki on Carbonic anhydrase 9 is 0.0154 µM.
Turning to `CCCOc1ccc2c(c1)CCN=C2c1ccc(S(N)(=O)=O)cc1`, the inhibition constant (Ki) at Carbonic anhydrase 14 was 0.0087 µM; on Carbonic anhydrase 9, 0.0161 µM; on Carbonic anhydrase 2 it was 0.0088 µM; at Carbonic anhydrase 1, 0.0831 µM; at Carbonic anhydrase 7 it was 0.008 µM.
On to `COc1cc2c(cc1OC)C(c1ccc(S(N)(=O)=O)cc1)N(S(N)(=O)=O)CC2` (configuration not stated), for which, on Carbonic anhydrase 9, the affinity corresponds to a Ki of 0.076 µM.
Regarding `COc1cccc(CCNC(=O)c2ccc(S(N)(=O)=O)cc2)c1`, the affinity at Carbonic anhydrase 9, expressed as Ki, was 0.0065 µM.
On the same count and under the same terms, for `COc1ccc2c(c1)CCN(S(N)(=O)=O)C2c1ccc(S(N)(=O)=O)cc1` (configuration not stated) the value was 0.0065 µM; for `COc1cc2c(cc1OC)C(c1ccc(S(N)(=O)=O)cc1)=NCC2`, 0.21 µM.
As to `COc1cc2c(cc1OC)C(c1ccc(S(N)(=O)=O)cc1)NCC2` (configuration not stated), affinity on Carbonic anhydrase 9 was put at a Ki of 0.13 µM.
Compound `NS(=O)(=O)c1ccc(C2c3ccc(O)cc3CCN2S(N)(=O)=O)cc1` (configuration not stated) returned a Ki on Carbonic anhydrase 9 of 0.0079 µM.
Still for that read-out and setting: for `CCOc1cccc(CCNC(=O)c2ccc(S(N)(=O)=O)cc2)c1` the value was 0.0081 µM; for `COc1ccc(CCNC(=O)c2ccc(S(N)(=O)=O)cc2)cc1OC`, 0.0038 µM.
`NS(=O)(=O)c1ccc(C(=O)NCCc2cccc(O)c2)cc1` displayed a Ki at Carbonic anhydrase 9 of 0.0417 µM.
For the compound `CCOc1ccc2c(c1)CCN=C2c1ccc(S(N)(=O)=O)cc1`, the Ki on Carbonic anhydrase 14 was determined as 0.0179 µM; on Carbonic anhydrase 9, 0.0072 µM; at Carbonic anhydrase 2, 0.0875 µM; on Carbonic anhydrase 1 it was 1.05 µM; at Carbonic anhydrase 7, 0.0065 µM.
`CCCOc1cccc(CCNC(=O)c2ccc(S(N)(=O)=O)cc2)c1` displayed an inhibitory constant (Ki) on Carbonic anhydrase 9 of 0.0083 µM.
In turn, `CCOc1ccc2c(c1)CCN(S(N)(=O)=O)C2c1ccc(S(N)(=O)=O)cc1` (configuration not stated) gave a Ki on Carbonic anhydrase 9 of 0.0521 µM.
Same read-out and setting: for `COc1ccc2c(c1)CCN=C2c1ccc(S(N)(=O)=O)cc1` the value was 0.0183 µM; for `NS(=O)(=O)c1ccc(C2=NCCc3cc(O)ccc32)cc1`, 0.0515 µM; for `CCCOc1ccc2c(c1)CCNC2c1ccc(S(N)(=O)=O)cc1` (racemic), 0.0092 µM.
In the case of `CCOc1ccc2c(c1)CCNC2c1ccc(S(N)(=O)=O)cc1` (racemic), the Ki at Carbonic anhydrase 9 is 0.0092 µM.
